One assay deals with T1, mu opioid receptor (Rattus norvegicus, UniProt P33535).
T1 construct: the forebrains were homogenized in Tris buffer in a Teflon®-glass homogenizer; from tissue; host or cells: forebrain of male Wistar rats (particulate membrane preparation)
In words: Rat brain mu opioid receptor binding assay. The note with it: rat forebrain membranes, [3H]DAMGO, 25° C., 2.5 h. Summed up:
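Forebrain membranes from male Wistar rats, homogenized in 50 mM Tris-HCl pH 7.4 and resuspended in Tris with 5 mM MgCl2. Radioligand binding counted by scintillation; % inhibition versus control at single concentration, or Ki from concentration ranges.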

The target in assay [1] is T2, delta opioid receptor (NG108-15 cell membranes) (Mus musculus, UniProt P32300).
T2 construct: NG108-15 cell membranes were purchased from Applied Cell Sciences (Rockville, Md.); host or cells: NG108-15 cell membranes (purchased)
T2 sequence (P32300 whole entry): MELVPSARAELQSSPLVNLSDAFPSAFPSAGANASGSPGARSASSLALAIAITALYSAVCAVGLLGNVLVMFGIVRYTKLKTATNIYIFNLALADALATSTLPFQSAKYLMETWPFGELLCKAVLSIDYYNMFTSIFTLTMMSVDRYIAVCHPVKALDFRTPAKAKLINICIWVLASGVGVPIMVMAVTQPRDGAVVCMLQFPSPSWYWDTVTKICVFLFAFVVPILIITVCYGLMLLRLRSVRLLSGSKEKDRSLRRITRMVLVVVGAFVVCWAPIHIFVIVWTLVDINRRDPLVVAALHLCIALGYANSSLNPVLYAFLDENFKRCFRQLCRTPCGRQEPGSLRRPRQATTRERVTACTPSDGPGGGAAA
In words: [35S]GTPγS binding assay in NG108-15 cell membranes (delta opioid). Format: biochemical. Here is the method: Functional Assay: [^35S]GTPγS Binding Assay in NG108-15 Cell Membranes (Delta Opioid)
Methods: NG108-15 cell membranes were purchased from Applied Cell Sciences (Rockville, Md.). A sample (8 mg/mL) of membrane protein suspended in 10 mM TRIS-HCl pH 7.2, 2 mM EDTA, 10% sucrose. Membranes were maintained at 4-8° C. A 1 mL volume of membranes was added into 10 mL cold binding assay buffer. The assay buffer contained 50 mM Tris, pH 7.6, 5 mM MgCl2, 100 mM NaCl, 1 mM DTT and 1 mM EGTA. The membrane suspension was homogenized twice with a Polytron, and centrifuged at 3000 rpm for 10 min. The supernatant was then centrifuged at 18,000 rpm for 20 min. Ten mL assay buffer was added into the pellet containing tube. The pellet and buffer were mixed with a Polytron.
Incubation procedure: The pellet membranes (75 μg/mL) were preincubated with SPA (10 mg/mL) at 25° C. for 45 min in the assay buffer. The SPA (5 mg/mL) coupled with membranes (37.5 μg/mL) was then incubated with 0.1 nM [^35S]GTPγS in the same Tris buffer containing 100 μM GDP in total volume of 200 μL. Increasing concentrations of receptor agonists were used to stimulate [^35S]-GTPγS binding. The basal binding was tested in the absence of agonists and non-specific binding was tested in the presence of 10 μM unlabeled GTPγS. The data were analyzed on a Packard Top Count.
% of Basal=(stimulated−non specific)*100/(basal−non specific).
(§1) EC50 values were calculated using GraphPad Prism.

For the next assay, the target named is T3, delta opioid receptor (Rattus norvegicus, UniProt P33533).
T3 construct: the forebrains were homogenized in Tris buffer in a Teflon®-glass homogenizer; from tissue; host or cells: forebrain of male Wistar rats (particulate membrane preparation)
T3 sequence (P33533 whole entry): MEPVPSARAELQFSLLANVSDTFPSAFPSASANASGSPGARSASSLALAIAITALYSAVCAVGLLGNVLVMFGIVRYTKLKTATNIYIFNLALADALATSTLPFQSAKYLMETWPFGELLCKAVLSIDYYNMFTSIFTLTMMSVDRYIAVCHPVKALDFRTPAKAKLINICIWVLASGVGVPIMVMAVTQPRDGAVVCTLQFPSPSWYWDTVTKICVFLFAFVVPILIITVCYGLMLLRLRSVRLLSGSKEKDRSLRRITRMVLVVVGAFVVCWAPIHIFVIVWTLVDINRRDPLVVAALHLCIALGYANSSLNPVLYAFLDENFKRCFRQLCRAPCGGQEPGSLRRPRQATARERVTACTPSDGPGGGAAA
In words: Rat brain delta opioid receptor binding assay. The note with it: rat forebrain membranes, [3H]DPDPE or [3H]naltrindole, 25° C., 2.5 h.

Assay [2] addresses T4, hMOR (CHO-hMOR cell membranes) (Homo sapiens, UniProt P35372).
T4 construct: host or cells: CHO cells expressing hMOR (purchased membranes)
In words: [35S]GTPγS binding assay in CHO-hMOR cell membranes. Type of assay: biochemical. On the procedure:
Functional Assay: [^35S]GTPγS Binding Assays in CHO-hMOR Cell Membranes
Methods: CHO-hMOR cell membranes were purchased from Receptor Biology, Inc. (Baltimore, Md.). About 10 mg/mL of membrane protein was suspended in 10 mM TRIS-HCl pH 7.2, 2 mM EDTA, 10% sucrose, and the suspension kept on ice. A 1 mL volume of membranes was added to 15 mL cold binding assay buffer containing 50 mM HEPES, pH 7.6, 5 mM MgCl2, 100 mM NaCl, 1 mM DTT and 1 mM EDTA. The membrane suspension was homogenized with a Polytron and centrifuged at 3,000 rpm for 10 min. The supernatant was then centrifuged at 18,000 rpm for 20 min. The pellet was resuspended in 10 mL assay buffer with a Polytron. The membranes were preincubated with wheat germ agglutinin coated SPA beads (Amersham) at 25° C. for 45 min in the assay buffer. The SPA bead (5 mg/mL) coupled membranes (10 μg/mL) were then incubated with 0.5 nM [^35S]GTPγS in the assay buffer. […] A range of concentrations of receptor agonist was used to stimulate [^35S]GTPγS binding. Both basal and non-specific binding was tested in the absence of agonist; non-specific binding determination included 10 μM unlabeled GTPγS.
Compounds were tested for function as antagonists by evaluating their potential to inhibit agonist-stimulated GTPγS binding. Radioactivity was quantified on a Packard TopCount. The following parameters were calculated:
as §1
A general note: GTPγS is a poorly hydrolysed GTP analogue; its binding reports G protein activation.

The mark [3] stands for this setting: rMOR (Ki, nM): Rat mu opioid receptor binding constant.
[4] abbreviates: read-out: delta GTPγS binding EC50.
[5] abbreviates: rDOR (Ki, nM): Rat delta opioid receptor binding constant.
The mark [6] stands for this setting: CHO-hMOR cell membranes, read-out: mu GTPγS binding EC50.

Read-outs that look alike come from different tables or passages of the source. Some results are limits rather than exact numbers.

T1 sequence (P33535 whole entry): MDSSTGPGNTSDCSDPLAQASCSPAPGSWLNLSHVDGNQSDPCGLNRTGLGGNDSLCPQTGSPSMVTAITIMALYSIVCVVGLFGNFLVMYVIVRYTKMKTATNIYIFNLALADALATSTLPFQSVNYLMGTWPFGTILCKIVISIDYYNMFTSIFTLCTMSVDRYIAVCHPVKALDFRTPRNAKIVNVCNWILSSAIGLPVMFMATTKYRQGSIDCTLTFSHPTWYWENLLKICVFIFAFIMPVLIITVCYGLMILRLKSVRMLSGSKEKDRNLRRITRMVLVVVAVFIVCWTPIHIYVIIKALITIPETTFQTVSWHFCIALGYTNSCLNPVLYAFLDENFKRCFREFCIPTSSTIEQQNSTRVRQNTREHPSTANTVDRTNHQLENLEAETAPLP
T4 sequence (P35372 whole entry): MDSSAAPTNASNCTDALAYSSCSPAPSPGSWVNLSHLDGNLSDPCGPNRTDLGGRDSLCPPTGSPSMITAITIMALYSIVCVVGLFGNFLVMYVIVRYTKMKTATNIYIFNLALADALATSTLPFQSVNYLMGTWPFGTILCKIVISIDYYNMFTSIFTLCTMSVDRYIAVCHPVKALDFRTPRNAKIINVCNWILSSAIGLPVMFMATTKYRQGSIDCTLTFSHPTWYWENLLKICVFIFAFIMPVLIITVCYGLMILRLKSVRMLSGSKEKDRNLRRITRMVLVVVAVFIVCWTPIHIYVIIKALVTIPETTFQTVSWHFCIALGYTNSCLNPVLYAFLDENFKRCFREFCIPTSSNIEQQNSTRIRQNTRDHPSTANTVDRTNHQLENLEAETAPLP

`Oc1cccc2c1Oc1ccccc1C2=C1CC2CCC(C1)N2Cc1cccnc1` [Cpd 31, 9-(8-pyridin-3-ylmethyl-8-azabicyclo[3.2.1]oct-3-ylidene)-9H-xanthen-4-ol]: the Ki on mu opioid receptor (setting [3]) worked out at 1.23 nM; at delta opioid receptor (setting [5]) it was 0.028 nM. For the same compound, the figures for the EC50 in assay [1] (setting [4]) and in assay [2] (setting [6]) were 134 nM and 8090 nM, respectively.

With `Oc1cccc2c1Oc1ccccc1C2=C1CC2CCC(C1)N2Cc1c[nH]c(-c2ccccc2)n1` [Cpd 28], the Ki on mu opioid receptor (read-out: rMOR (Ki, nM): Rat mu opioid receptor binding constant) is 58.5 nM; at delta opioid receptor (read-out: rDOR (Ki, nM): Rat delta opioid receptor binding constant), 192 nM. For the same compound, the EC50 in assay [1] (setting [4]) was 1380 nM; in assay [2] (setting [6]), more than 10000 nM.

As for `Oc1cccc2c1Oc1ccccc1C2=C1CC2CCCC(C1)N2` [Cpd 20, 9-(9-Azabicyclo[3.3.1]non-3-ylidene)-9H-xanthen-4-ol], the Ki at mu opioid receptor (setting [3]) was 32.6 nM; on delta opioid receptor (setting [5]) it was 20.2 nM. In addition, the EC50 was found to be 180 nM in assay [1] (delta GTPγS binding EC50 (nM)) and 7080 nM in assay [2].
